Data set [1] relates to Mus musculus. Nature of the data set: Anti-aplastic anemia activity in C57BL/6J mouse model of immune-mediated bone marrow failure assessed as CD4+ T cells at 10 mg/kg, IG qd treated for 12 days by flow cytometry (reference value: 12.93 %). Format: functional. Conditions: time 12 day.
In data set [2] the test system is CTLL-2. Nature of the data set: Induction of ferroptosis in mouse CTLL-2 cells assessed as increase in p-p38 level at 7.5 to 30 uM incubated for 16 hrs by Western blot analysis. To be noted: dose 7.5-30 µM. The data set is classed as functional, cell-based. For orientation: Immunoblotting shows a protein as a band on a membrane.
Data set [3] has as its system CTLL-2. The experiment in a line: Induction of ferroptosis in IL-2-stimulated mouse CTLL-2 cells assessed as increase in mitochondrial superoxide level at 30 uM incubated for 6 hrs followed by Fer-1 addition measured after 10 hrs by MitoSOX Red staining based fluorescent microscopy. Conditions: time 16.0 hrs. Format: functional, cell-based.
The subject of data set [4] is NRK-52E. The experiment in a line: Induction of ferroptosis in rat NRK-52E cells assessed as increase in intracellular Ca2+ concentration at 10 uM by Fluo-4 AM dye based analysis. Format: functional, cell-based.
Data set [5] is described as follows: Cmax in Sprague-Dawley rat at 50 mg/kg, po measured for 0.083 to 24 hrs by HPLC analysis. Format: ADME, organism-based. To be noted: in vivo, time 0.083-24 hrs.
Data set [6] concerns HepG2. The experiment in a line: Induction of ferroptosis in human HepG2 cells assessed as increase in intracellular Ca2+ concentration at 10 uM by Fluo-4 AM dye based analysis. Format: functional, cell-based.
Data set [7] is described as follows: Acute toxicity in 12 hr-fasted KM mouse assessed as abnormalities in animal at 10 g/kg, po administered as single dose measured for 14 days. Format: organism-based. Conditions: in vivo, 10000 mg/kg, 336 h, time 14 day.
In data set [8] the test system is Mus musculus. Nature of the data set: Anti-aplastic anemia activity in C57BL/6J mouse model of immune-mediated bone marrow failure assessed as increase in peripheral red blood cells treated intragastrically once daily for 21 days. Format: functional, organism-based. Conditions: dose 5-15 mg/kg, route ig, time 21.0 day.
The subject of data set [9] is CTLL-2. The experiment in a line: Induction of ferroptosis in mouse CTLL-2 cells assessed as increase in intracellular Ca2+ concentration incubated for 24 hrs by Fluo-4 AM dye based analysis. The data set is classed as functional, cell-based.
For data set [10], the system named is CTLL-2. The experiment in a line: Induction of ferroptosis in mouse CTLL-2 cells assessed as increase in intracellular Ca2+ concentration at 10 uM incubated for 60 mins in presence of EDTA by Fluo-4 AM dye based analysis. Format: functional, cell-based.
Data set [11] is described as follows: Acute toxicity in 12 hr-fasted KM mouse assessed as animal survival at 10 g/kg, po administered as single dose measured for 14 days. Format: organism-based. Conditions: in vivo, 10000 mg/kg, 336 h, time 14 day.
Data set [12] concerns HepG2. Nature of the data set: Cytotoxicity against human HepG2 cells assessed as inhibition of cell viability incubated for 72 hrs by CCK8 assay. The data set is classed as functional, cell-based. To be noted: HepG2, 72 h. (Tetrazolium dyes change colour on reduction, which living cells bring about.)
In data set [13] the test system is CTLL-2. The experiment in a line: Induction of ferroptosis in mouse CTLL-2 cells assessed as increase in mitochondrial superoxide level incubated for 16 hrs by MitoSOX Red staining based fluorescent microscopy. The data set is classed as functional, cell-based. Conditions: dose 7.5-30 µM.
Data set [14] has as its system CTLL-2. Nature of the data set: Induction of ferroptosis in mouse CTLL-2 cells assessed as increase in intracellular lipid peroxidation level at 30 uM incubated for 16 hrs by flow cytometry. Format: functional, cell-based. In general terms: In flow cytometry, cells or beads pass a laser one at a time.
The subject of data set [15] is Mus musculus. The experiment in a line: Anti-aplastic anemia activity in C57BL/6J mouse model of immune-mediated bone marrow failure assessed as increase in dietary intake at 5 to 15 mg/kg, IG qd treated for 21 days. Format: functional, organism-based. Conditions: dose 5-15 mg/kg, time 21.0 day.
Data set [16] has as its system CTLL-2. Nature of the data set: Induction of ferroptosis in IL-2-stimulated mouse CTLL-2 cells assessed as increase in ROS level at 30 uM incubated for 6 hrs followed by Fer-1 addition measured after 10 hrs by DCFH-DA staining based flow cytometry. The data set is classed as functional, cell-based. Conditions: time 16.0 hrs.
Data set [17] concerns Mus musculus. The experiment in a line: Anti-aplastic anemia activity in C57BL/6J mouse model of immune-mediated bone marrow failure assessed as reduction in IFN-gamma level at 5 to 15 mg/kg, IG qd treated for 12 days by ELISA. Conditions: dose 5-15 mg/kg, time 12.0 day. Format: functional, organism-based.
For data set [18], the system named is Mus musculus. The experiment in a line: Anti-aplastic anemia activity in C57BL/6J mouse model of immune-mediated bone marrow failure assessed as reduction in cytotoxic T lymphocytes hyperactivation at 5 to 15 mg/kg, IG qd treated for 12 days. To be noted: dose 5-15 mg/kg, time 12.0 day. Format: functional, organism-based.
Data set [19] concerns CTLL-2. Nature of the data set: Induction of ferroptosis in mouse CTLL-2 cells assessed as increase in intracellular Ca2+ concentration in presence of 2-APB/CM4620 by Fluo-4 AM dye based analysis. The data set is classed as functional, cell-based.
Data set [20] concerns Mus musculus. Nature of the data set: Anti-aplastic anemia activity in C57BL/6J mouse model of immune-mediated bone marrow failure assessed as increase in memory CD8+ T cells at 5 to 15 mg/kg, IG qd treated for 12 days by flow cytometry. The data set is classed as functional, organism-based. Conditions: dose 5-15 mg/kg, time 12.0 day.
Data set [21] deals with Mus musculus. The experiment in a line: Anti-aplastic anemia activity in C57BL/6J mouse model of immune-mediated bone marrow failure assessed as CD8+ T cells at 5 mg/kg, IG qd treated for 12 days by flow cytometry (reference value: 72.15 %). Format: functional. To be noted: time 12 day.
Data set [22] in a line: Drug metabolism in Sprague-Dawley rat plasma assessed as (4bR,9S)-1-(hydroxymethyl)-3,7-dimethoxy-11-methyl-6-oxo-6,8a,9,10-tetrahydro-5H-9,4b-(epiminoethano)phenanthren-4-yl cinnamate metabolite formation at 50 mg/kg, po measured for 24 hrs by HPLC analysis. The data set is classed as ADME, organism-based. Conditions: in vivo.
A short description of data set [23]: Stability in mouse spleen assessed as compound remaining at 50 mg/kg, po measured for 0.083 to 8 hrs by HPLC analysis. Format: ADME, organism-based. To be noted: in vivo, time 0.083-8 hrs.
The nature of data set [24]: Drug metabolism in rat plasma assessed as hydrolyzation/hydroxylation-mediated metabolite formation at 50 mg/kg, po measured for 24 hrs by HRMS analysis. The data set is classed as ADME, organism-based. To be noted: in vivo.
A short description of data set [25]: Drug metabolism in mouse plasma assessed as cinnamic acid metabolite formation administered orally by HRMS analysis. Format: ADME. To be noted: po.
Data set [26] is described as follows: Drug metabolism in Sprague-Dawley rat plasma assessed as cinnamic acid metabolite formation at 50 mg/kg, po measured for 24 hrs by HPLC analysis. Format: ADME, organism-based. Conditions: in vivo.
A short description of data set [27]: Drug metabolism in rat plasma assessed as double hydrolyzation/double hydroxylation-mediated metabolite formation at 50 mg/kg, po measured for 24 hrs by HRMS analysis. The data set is classed as ADME, organism-based. Conditions: in vivo.
The nature of data set [28]: Drug metabolism in rat plasma assessed as (4bR,9S)-1-(hydroxymethyl)-3,7-dimethoxy-11-methyl-6-oxo-6,8a,9,10-tetrahydro-5H-9,4b-(epiminoethano)phenanthren-4-yl cinnamate metabolite formation at 50 mg/kg, po measured for 24 hrs by HRMS analysis. Format: ADME, organism-based. To be noted: in vivo.
Data set [29] is described as follows: Drug metabolism in Sprague-Dawley rat plasma assessed as cinnamic acid metabolite formation at 5 mg/kg, iv measured for 24 hrs by HPLC analysis. Format: ADME, organism-based. To be noted: in vivo.
A short description of data set [30]: Drug metabolism in mouse bone marrow assessed as (4bR,9S)-1-(hydroxymethyl)-3,7-dimethoxy-11-methyl-6-oxo-6,8a,9,10-tetrahydro-5H-9,4b-(epiminoethano)phenanthren-4-yl cinnamate metabolite formation at 50 mg/kg, po measured for 0.083 to 8 hrs by HPLC analysis. Format: ADME, organism-based. Conditions: in vivo, time 0.083-8 hrs.
Data set [31] in a line: Stability in rat plasma at 37 degreeC. Format: ADME, cell-free.
The nature of data set [32]: Drug metabolism in mouse spleen assessed as cinnamic acid metabolite formation at 50 mg/kg, po measured for 0.083 to 8 hrs by HPLC analysis. The data set is classed as ADME, organism-based. Conditions: in vivo, time 0.083-8 hrs.
Data set [33] is described as follows: Drug metabolism in mouse lymph node assessed as cinnamic acid metabolite formation at 50 mg/kg, po measured for 0.083 to 8 hrs by HPLC analysis. The data set is classed as ADME, organism-based. To be noted: in vivo, time 0.083-8 hrs.
The nature of data set [34]: Stability in mouse kidney assessed as compound remaining at 50 mg/kg, po measured for 0.083 to 8 hrs by HPLC analysis. Format: ADME, organism-based. To be noted: in vivo, time 0.083-8 hrs.

From ChEMBL document CHEMBL6177973, “A Novel Compound 3a-M1, from Metabolites of Sinomenine Derivative 3a, Exerts Potent Anti-Aplastic Anemia Activity via IP3R/ORAI-Mediated CTL Ferroptosis” (J Med Chem, 2025) come the findings set out here.

Active and inactive are the calls of the source. The rule behind the calls is not given here.

As usually defined, the Cmax is the peak of the concentration-time curve. For orientation: IC50 means the concentration that gives 50% inhibition. In the case of `COC1=C[C@@H]2[C@@H]3Cc4c(CO)cc(OC)c(OC(=O)/C=C/c5ccccc5)c4[C@]2(CCN3C)CC1=O`, the Activity was 21.08% in data set [1]; “Not active; Elevation Was Smaller Than In Mouse Ctll-2 Cells” in [4]; “Not active; Elevation Was Smaller Than In Mouse Ctll-2 Cells” in [6]; “Non-toxic” in [7]; “Dose-dependent-effect” in data set [8]; “Non-toxic” in data set [11]. Moreover, the Activity entry in data set [13] is “Dose-dependent-effect”; in data set [21] it was 60.82%. The result in data set [2], in [9], in data set [10], in data set [14], in data set [15] and in data set [17] was Active. Further, the result in data set [18] and in data set [20] was Active. For the same compound, the result in data set [3], in data set [16] and in data set [19] was inactive. The compound also came in with a Cmax in data set [5] of 3590 ng/mL. For the same compound, the IC50 in data set [12] turned out to be 492 µM.

Take `COC1=C[C@@H]2[C@@H]3Cc4c(COC(=O)/C=C/c5ccccc5)cc(OC)c(OC(=O)/C=C/c5ccccc5)c4[C@]2(CCN3C)CC1=O`: the Drug metabolism entry in [22], in data set [24], in data set [25], in [26], in data set [27] and in data set [28] was “metabolite_detected” throughout. Besides, the Drug metabolism entry in data set [29], in data set [30], in [32] and in [33] was “metabolite_detected” in each case. Besides, the Stability entry in data set [23], in data set [31] and in data set [34] was “Unstable” in each case.
